Assay results: patent publication US12337010B2, “Compositions and methods of treatment using nicotinamide mononucleotide” (Washington University, priority 2017, dated 2025)

Tests used:
[1] = test system: GLP-1 secretion from the ileum; test: GLP-1 secretion from ex vivo ileal explants (ELISA); assay type: cell-based, mouse; conditions: ileal explants of 24-month-old female B6 mice, 20 μM, 4 h, vs 0.2% DMSO
Procedure: GLP-1 measurement in plasma and in supernatants of ex vivo small intestine explant cultures. Blood was collected after 6 h refeeding (from 10 am to 4 pm) following 24 h fasting (from 9 am to 9 am) from tail veins of 2- or 24-month-old female Slc12a8 knockdown mice and their controls using EDTA-coated tubes. Blood was immediately chilled on ice, centrifuged at 5,000×g at 4° C., and plasma samples were stored at −80° C. Small intestines from gut-specific Slc12a8 knockdown female mice or 12-month-old Slc12a8KO female mice were cut into three segments of the duodenum, jejunum, and ileum with length ratios of 1:3:2 (Wang, H. H., et al., Hepatology, 2007, 45, 998-1006). […] GLP-1 levels in plasma and media were measured by GLP-1 Total ELISA Kit (EMD Millipore, MO) following the manufacturer's instruction. GLP-1 values were normalized by total protein content analyzed by Bradford assay.
The involvement of SIRT1 (Yoon, M. J., et al., Cell Metab., 2015 21, 706-717) and SIRT6 (Jiang, H. et al., Nature, 2013, 496, 110-113) in the observed increase in GLP-1 secretion was examined. […] GLP-1 levels were measured by ELISA in the supernatants from ex vivo ileal explants of 24-month-old female B6 mice cultured with 0.2% DMSO, 20 µM EX527 or 20 μM STK665401 for 4 h (n=3 mice, analyzed using ANOVA with Tukey's test).

[2] = target: T1, 5′-nucleotidase (Mus musculus, UniProt Q61503); test: 5'-nucleotidase activity assay in intact primary hepatocytes (adenosine from AMP by HPLC); assay type: cell-based; conditions: 500 μM AOPCP, 100 μM AMP
T1 construct: endogenous in cells; host or cells: primary hepatocytes from C57BL/6J mice
T1 sequence (Q61503 29-551): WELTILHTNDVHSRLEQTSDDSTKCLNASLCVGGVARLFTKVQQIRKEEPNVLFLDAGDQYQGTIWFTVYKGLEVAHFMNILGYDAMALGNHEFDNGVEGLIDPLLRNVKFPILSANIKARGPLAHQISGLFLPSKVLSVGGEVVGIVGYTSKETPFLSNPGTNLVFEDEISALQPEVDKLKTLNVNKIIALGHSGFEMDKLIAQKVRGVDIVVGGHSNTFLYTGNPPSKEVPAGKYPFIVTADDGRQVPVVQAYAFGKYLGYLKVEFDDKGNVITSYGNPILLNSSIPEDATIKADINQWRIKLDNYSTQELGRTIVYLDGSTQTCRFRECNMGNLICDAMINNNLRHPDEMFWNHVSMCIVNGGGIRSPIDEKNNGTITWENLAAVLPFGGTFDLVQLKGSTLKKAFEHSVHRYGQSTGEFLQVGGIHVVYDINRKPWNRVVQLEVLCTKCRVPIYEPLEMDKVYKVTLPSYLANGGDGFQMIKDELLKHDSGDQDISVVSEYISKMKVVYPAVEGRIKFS
Procedure: The amounts of adenosine produced were determined by HPLC. […] Silencing efficiencies were evaluated by quantitative RT-PCR.
AOPCP inhibits 5′-nucleotidase activity by 97%.

Structure (SMILES) | GLP-1 secretion [1] | inhibition of 5′-nucleotidase activity [2]
Cn1c(=O)c2cc(S(=O)(=O)Nc3ccc(Cc4ccncc4)cc3)ccc2n(C)c1=O [STK665401] | not | 
Nc1ncnc2c1ncn2[C@@H]1O[C@H](COP(=O)(O)CP(=O)(O)O)[C@@H](O)[C@H]1O [AOPCP, adenosine-5′-[α,β-methylene]diphosphate] |  | 97%
